Patent US10765638B2, “Particle formulation with polycation complex” (Yale University, priority 2017, dated 2020)

Legend:
FGFR1 dependent H1580 = settings: Lopez-Sambrooks et al., Nat Chem Biol. 2016; cited from earlier work
MET, PDGFR and FGFR RTKs = assay: Western blot of MET, PDGFR and FGFR phosphorylation and levels in glioma cells; format: cell-based
Protocol: In this study, the D54, SKMG3, U251, T98G and 42-MG glioma cell lines were used. The source of D54, SKMG3 and U251 cells has been described previously (Contessa at al., Clin Cancer Res., 16:3205-14 (2010), Lopez et al., Int J Radiat Oncol Biol Phys., 69:214-20 (2007)). The 42-MG and T98G cells were provided by Todd Waldman (Georgetown University) and Dr. Ranjit Bindra (Yale University), respectively. The cells were cultured in DMEM/F12 (D54 and T98G), DMEM (42-MG and U251) or RPMI 1640 (SKMG3)+10% FBS supplemented with penicillin and streptomycin (Gibco, Life Technologies, Grand Island, N.Y., US) in a humidified incubator with 5% CO2, and they were kept in culture no more than 6 months after resuscitation from the original stocks. […] Mycoplasma cell culture contamination was routinely checked and ruled out using a biochemical test (MycoAlert Mycoplasma Detection Kit from Lonza, Rockland, Me. USA). Tunicamycin was purchased from Calbiochem/EMD-millipore (Burlington, Mass., USA). Cetuximab and Erlotinib were purchased at Selleck Chemicals LLC (Houston, Tex., USA). Luciferin was supplied by Promega (Madison, Wis. USA). For in vitro experiments, radiation (XRT) was administered at room temperature using a Precision X-ray 320-kV orthovoltage unit at a dose rate of 2 Gy/45 seconds (PXI X-Ray Systems) with 2 mm aluminum filter. For in vivo studies, radiation was administered at room temperature using a Precision X-ray 250-kV orthovoltage unit at a dose rate of 6.42 Gy/min (PXI X-Ray Systems) with 2 mm aluminum filter. Quality Assurance for both irradiators was performed monthly using a P.T.W. 0.3 cm^3 Ionization Chamber calibrated to NIST standards and quarterly dosimetry using thermoluminescent dosimeter (TLD)-based or ferrous sulfate-based dosimeters.

Structure (SMILES): Cc1cnc(NC(=O)c2cc(S(=O)(=O)N(C)C)ccc2N2CCCC2)s1 [NGI-1, 5-(dimethylsulfamoyl)-N-(5-methyl-1,3-thiazol-2-yl)-2-(pyrrolidin-1-yl)benzamide]
- sensitivity to OST inhibition with NGI-1 (FGFR1 dependent H1580): sensitive
- phosphorylation of PDGFR (MET, PDGFR and FGFR RTKs; 42-MG, SKMG3, and T98G cells): uniformly reduced
- phosphorylation of MET (MET, PDGFR and FGFR RTKs; D54, SKMG3, U251, and T98G cells): uniformly reduced phosphorylation
- FGFR1 levels (MET, PDGFR and FGFR RTKs; glioma cell lines): increased
- FGFR1 receptor phosphorylation (MET, PDGFR and FGFR RTKs; glioma cell lines): not accompanied by an increase in receptor phosphorylation
